Values quoted from earlier work as cited in patent US10624840B2, “Method for performing cosmetic surgical procedures using tumescent anesthesia and oral sedation” (priority 2017, dated 2020).

Test system: patient
Conditions: oral

O=C1Nc2ccc(Cl)cc2C(c2ccccc2Cl)=NC1O (stereo not shown) [Lorazepam, lorazepam]
duration of lasting effects on a patient: 10 to 20 h
